We go through 1 compound from paper PMC4074244 (Nature, 2014).

Assay [1] addresses T1, mitochondrial glycerophosphate dehydrogenase (mGPD) (Homo sapiens, UniProt P43304).
T1 sequence (P43304 43-727): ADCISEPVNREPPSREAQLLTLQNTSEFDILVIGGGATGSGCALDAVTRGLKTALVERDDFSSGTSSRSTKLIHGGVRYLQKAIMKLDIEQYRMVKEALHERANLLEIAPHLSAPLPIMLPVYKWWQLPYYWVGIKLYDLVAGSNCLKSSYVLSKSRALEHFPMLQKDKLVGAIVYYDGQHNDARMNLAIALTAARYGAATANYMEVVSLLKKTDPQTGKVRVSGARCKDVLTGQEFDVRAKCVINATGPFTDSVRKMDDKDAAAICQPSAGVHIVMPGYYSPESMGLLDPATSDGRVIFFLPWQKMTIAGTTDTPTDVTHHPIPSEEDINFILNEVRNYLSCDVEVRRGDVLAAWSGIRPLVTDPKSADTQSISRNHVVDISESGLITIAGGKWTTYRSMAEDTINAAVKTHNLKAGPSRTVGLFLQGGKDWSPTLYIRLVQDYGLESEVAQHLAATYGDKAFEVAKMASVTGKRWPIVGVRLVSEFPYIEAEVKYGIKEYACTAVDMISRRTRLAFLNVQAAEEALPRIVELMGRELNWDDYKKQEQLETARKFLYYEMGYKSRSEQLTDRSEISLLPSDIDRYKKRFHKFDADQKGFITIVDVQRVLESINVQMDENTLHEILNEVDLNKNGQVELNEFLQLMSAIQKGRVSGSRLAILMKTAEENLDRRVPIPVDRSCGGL
The experiment in a line: DCIP reduction assay. It counts as biochemical.

Assay [2] addresses T2, mitochondrial glycerophosphate dehydrogenase (mGPD) (Rattus norvegicus, UniProt P35571).
T2 sequence (P35571 43-727): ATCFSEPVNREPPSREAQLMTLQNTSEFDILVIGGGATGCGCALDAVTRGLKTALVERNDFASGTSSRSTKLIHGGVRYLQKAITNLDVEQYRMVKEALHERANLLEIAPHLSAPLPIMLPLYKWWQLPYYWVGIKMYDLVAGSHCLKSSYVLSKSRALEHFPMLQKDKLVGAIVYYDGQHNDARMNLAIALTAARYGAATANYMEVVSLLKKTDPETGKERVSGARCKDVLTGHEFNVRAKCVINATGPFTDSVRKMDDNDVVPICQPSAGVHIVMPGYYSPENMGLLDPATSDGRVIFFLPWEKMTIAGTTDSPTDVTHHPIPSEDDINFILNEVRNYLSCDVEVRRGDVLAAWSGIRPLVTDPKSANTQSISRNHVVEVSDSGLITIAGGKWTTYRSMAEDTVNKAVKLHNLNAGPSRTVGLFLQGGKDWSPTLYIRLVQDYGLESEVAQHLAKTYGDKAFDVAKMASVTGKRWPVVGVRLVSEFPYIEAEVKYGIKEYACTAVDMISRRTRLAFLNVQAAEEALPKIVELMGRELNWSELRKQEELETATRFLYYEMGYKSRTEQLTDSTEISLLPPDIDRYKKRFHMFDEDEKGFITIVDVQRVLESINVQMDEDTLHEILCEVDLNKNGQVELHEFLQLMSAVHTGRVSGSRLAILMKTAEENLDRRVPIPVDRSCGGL
In words: DCIP reduction assay. It counts as biochemical.

Usually Ki stands for a dissociation constant, usually derived from enzyme kinetics or from competition with a known ligand. As for `CN(C)C(=N)N=C(N)N` [metformin], the Ki is about 55 µM in assay [1] and about 38 µM in assay [2].
